Read-outs that look alike come from different tables or passages of the source.
Tests used:
hNET = molecular target: T1, hNET (Homo sapiens, UniProt P23975); assay: competition binding assay, recombinant human NET in HEK-293 cell membranes
T1 construct: expressed in transfected cells; host or cells: HEK-293 (HEK-hNET), membranes
Description: (§1) These transporters control the amount of the three monoamines in the TMMS and therefore regulate fast excitatory and inhibitory neurotransmission in the CNS. Thus, the relative amounts of all three of these monoamines in the TMMS of brain controls mammalian neurobehaviors. To determine the Ki of the representative compounds; recombinant human monoamine transporters (DAT, SERT and NET) were expressed in HEK-293 cells as described in Eshleman et al. (1999). The HEK-hDAT, HEK-hSERT and HEK-hNET cells were incubated in modified Eagle's medium or Dulbecco's modified Eagle's medium exactly as described by Eshleman et al. Cells were grown until confluent on 150 mm diameter tissue culture dishes in a humidified 10% CO2 environment at 37° C. […] Paroxetine (SERT), [125sup I] RTI-55 binding (DAT) and (NET). The binding assays contained an aliquot of membranes prepared from the HEK cell lines expressing the recombinant human transporters (≈12-30 μg protein, depending on the cell line, adjusted to bind <10% of the total radioactivity added to the assay), [125supI] RTI-55 (0.2 nM final concentration) or [3supH] Paroxetine (0.4 nM final concentration) along with Krebs-HEPES assay buffer to yield a final volume of 250 μL. Specific binding was defined as the difference in binding observed in the presence and absence of 10 μM nomifensine (HEK-hDAT), 10 uM desipramine HEK-NET) or 10 μM imipramine (HEK-hSERT). The reaction was incubated for 90 min at room temperature in the dark and was terminated by vacuum filtration. Competition experiments were conducted with duplicate determinations.

hDAT = molecular target: T2, hDAT (Homo sapiens, UniProt Q01959); assay: competition binding assay, recombinant human DAT in HEK-293 cell membranes; conditions: [125I]RTI-55 0.2 nM, ± mean standard error, 3 trials, read-out: Inhibition of binding at human monoamine transporters (Ki) hDAT
T2 construct: expressed in transfected cells; host or cells: HEK-293 (HEK-hDAT), membranes
Description: as §1

hSERT = molecular target: T3, hSERT (Homo sapiens, UniProt P31645); assay: competition binding assay, recombinant human SERT in HEK-293 cell membranes
T3 construct: expressed in transfected cells; host or cells: HEK-293 (HEK-hSERT), membranes
Description: as §1

symptoms of ADHD = assay: clinical case study, ADHD (Example 3); format: in vivo, human
Description: patient two is a person. […], they were also being treated with risperidone which continued for 2 years. […] Subsequently, the risperidone was then completely discontinued without any recurrence of symptoms of ADHD (i.e. poor attention span, hyperactivity, or inappropriate behavior).

chronic fatigue syndrome = assay: clinical case study, chronic fatigue syndrome (Example 5); format: in vivo, human; conditions: person, Mazindol 5.0 mg per day, after 10 days of therapy
Description: P. C. a person had suffered from chronic fatigue syndrome, “chemical sensitivity and for one year with marked fatigue each day beginning in the early or mid afternoon. There has been some accompanying muscle aching, but no symptoms of central neurosystem involvement. Their functioning at work and at home had been seriously impaired. EBV titers were positive.

Tourette syndrome = assay: clinical case study, Tourette syndrome with ADHD (Example 4); format: in vivo, human; conditions: patient, Mazindol 7.5 mg per day started
Method: patient one is a person. They began to have constant vocal tics. Motor tics started […], consisting of licking their lips, rolling their eyes, hand and foot tics. They were diagnosed as having Tourette syndrome. […], the major problems were with their tics, outbursts and lack of control. Despite treatment with methylphenidate 20 mg twice a day (bid), haloperidol 0.5 mg and paroxetine 10 mg, they were in special school and was suffering from uncountable motor and vocal tics everyday during waking hours and with outbursts of shouting, coprolalia and episodes of self-mutilation. coprolabia, lying, hitting things and people, and extremely oppositional.

[1] = tested on: reward deficiency disorder; assay: clinical case study, reward deficiency disorder (Example 6); format: in vivo, human; conditions: person, Mazindol 2 mg BID, over several weeks
Description: W. K. a person had suffered from alcohol abuse, sexual addiction and pathologic gambling for 10 years. They had been in counseling, Alcoholic Anonymous, Gamblers Anonymous on and off over the past 10 years with minimal effects. They had lost their marriage and several jobs as result of their behavioral problems. They had been treated with antidepressants, but they had been of little help. […] In addition, they reported that the thrill they have always gotten from gambling was no long present and they no longer felt compulsion to gamble.

[2] = tested on: obsessive compulsive behavior; assay: clinical case study, obsessive compulsive behavior (Example 8); format: in vivo, human; conditions: person, Mazindol 5 mg per day
Description: patient five is a person who developed compulsive behaviors after the birth of their first child. […] They washed all food even if it had been pre-packaged and placed in specific foods in specific locations in their pantry and refrigerator which they were sure were the “safest: They wore gloves when they left the house and made […] children do so as well. They sprayed disinfectant on everything […] or […] children came in contact with and refused in eat in restaurants. Prior to their pregnancy they had been diagnosed with polycystic ovary disease and need treatment in order to conceive. They were told that they were also “borderline diabetic”. […] Shortly, after beginning their therapy they reported that “mood was better” and they didn't “feel anxious” about bacteria anymore. After three weeks of therapy with Mazindol they stopped wearing gloves (and forcing […] children to do so) and using disinfectant. Their spouse reported that they were a “new […]” and they were no allowed to put the groceries away without having to place it in particular places.

dementia = assay: clinical case study, dementia with motor impairment (Example 7); format: in vivo, human; conditions: person, Mazindol 8 mg per day, after 2 weeks of treatment
Description: R 0 is a person had suffered from motor impairment and cognitive decline. They developed frank dementia and required institutionalization and nursing care. […] Based on reports by their care givers their became more aware of surrounding and was able to recognize family member for the first time in one year and was not “hearing and seeing things that were not there”.

[3] = [125I]RTI-55 0.2 nM, HEK-hNET membranes, ± mean standard error, 3 trials, read-out: Inhibition of binding at human monoamine transporters (Ki) hNET
[4] = [3H]Paroxetine 0.4 nM, HEK-hSERT membranes, ± mean standard error, 3 trials, read-out: Inhibition of binding at human monoamine transporters (Ki) hSERT

T3 sequence (P31645 whole entry): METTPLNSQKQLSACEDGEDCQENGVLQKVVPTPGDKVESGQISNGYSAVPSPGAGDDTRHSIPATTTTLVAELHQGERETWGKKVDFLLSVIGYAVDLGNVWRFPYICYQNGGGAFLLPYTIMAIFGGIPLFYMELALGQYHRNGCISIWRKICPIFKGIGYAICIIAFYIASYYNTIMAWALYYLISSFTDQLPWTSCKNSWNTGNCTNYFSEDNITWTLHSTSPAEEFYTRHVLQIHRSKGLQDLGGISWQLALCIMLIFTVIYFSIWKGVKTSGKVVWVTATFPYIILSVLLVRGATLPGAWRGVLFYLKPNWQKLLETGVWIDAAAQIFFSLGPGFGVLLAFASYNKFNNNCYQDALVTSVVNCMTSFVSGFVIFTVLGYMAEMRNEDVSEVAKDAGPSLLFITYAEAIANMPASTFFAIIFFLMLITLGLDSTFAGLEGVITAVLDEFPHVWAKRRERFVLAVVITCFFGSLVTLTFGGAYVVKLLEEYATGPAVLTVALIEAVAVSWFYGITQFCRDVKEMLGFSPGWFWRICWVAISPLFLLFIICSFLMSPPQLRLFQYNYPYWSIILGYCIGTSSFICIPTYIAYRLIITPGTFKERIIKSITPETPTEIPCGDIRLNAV
T2 sequence (Q01959 whole entry): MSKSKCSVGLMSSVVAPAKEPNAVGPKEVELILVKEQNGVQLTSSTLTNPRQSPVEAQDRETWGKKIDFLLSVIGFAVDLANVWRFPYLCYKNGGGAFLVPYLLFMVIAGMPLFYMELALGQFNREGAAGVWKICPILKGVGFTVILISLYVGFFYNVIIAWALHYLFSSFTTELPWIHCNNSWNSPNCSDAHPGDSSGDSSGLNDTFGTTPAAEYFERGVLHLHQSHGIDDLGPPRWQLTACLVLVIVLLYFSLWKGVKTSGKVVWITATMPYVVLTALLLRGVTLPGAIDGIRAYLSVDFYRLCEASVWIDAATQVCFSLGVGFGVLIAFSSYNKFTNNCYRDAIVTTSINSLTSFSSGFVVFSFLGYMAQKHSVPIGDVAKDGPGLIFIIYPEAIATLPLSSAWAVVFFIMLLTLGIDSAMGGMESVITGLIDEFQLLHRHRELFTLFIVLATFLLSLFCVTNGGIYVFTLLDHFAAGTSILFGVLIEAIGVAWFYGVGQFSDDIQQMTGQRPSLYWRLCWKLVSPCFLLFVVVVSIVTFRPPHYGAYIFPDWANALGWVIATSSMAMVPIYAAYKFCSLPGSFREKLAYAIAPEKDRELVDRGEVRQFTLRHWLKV
T1 sequence (P23975 whole entry): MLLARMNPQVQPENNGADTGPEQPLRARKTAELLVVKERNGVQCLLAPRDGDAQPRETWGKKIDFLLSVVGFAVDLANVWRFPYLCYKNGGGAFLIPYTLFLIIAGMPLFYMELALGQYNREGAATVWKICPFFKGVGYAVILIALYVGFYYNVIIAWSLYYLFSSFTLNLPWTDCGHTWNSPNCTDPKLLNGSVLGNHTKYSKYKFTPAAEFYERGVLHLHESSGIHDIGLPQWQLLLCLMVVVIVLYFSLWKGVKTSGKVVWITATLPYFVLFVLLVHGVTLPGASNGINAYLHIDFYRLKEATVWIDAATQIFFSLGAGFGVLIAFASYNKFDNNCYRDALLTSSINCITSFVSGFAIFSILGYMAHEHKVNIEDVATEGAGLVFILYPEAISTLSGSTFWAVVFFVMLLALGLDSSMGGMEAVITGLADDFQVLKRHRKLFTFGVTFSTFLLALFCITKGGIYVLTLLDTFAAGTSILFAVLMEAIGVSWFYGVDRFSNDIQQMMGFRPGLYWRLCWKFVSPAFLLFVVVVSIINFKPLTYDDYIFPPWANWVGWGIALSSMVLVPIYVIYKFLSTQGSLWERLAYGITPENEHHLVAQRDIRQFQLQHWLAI

SMILES	Ki (hNET; [3]) [nM]	Ki (hDAT) [nM]	Ki (hSERT; [4]) [nM]	recurrence of ADHD symptoms on maintenance (symptoms of ADHD; Mazindol 2.5 mg/day as sole agent, over the next 3 years)	clinical response of ADHD symptoms (symptoms of ADHD; patient, Mazindol 2.5 mg BID started, within 2 months)	clinical response of fatigue and muscle ache (chronic fatigue syndrome)	clinical response of tics, outbursts and related symptoms (Tourette syndrome)	Ki (hNET) [nM]	clinical response of drinking and gambling behavior [1]	clinical response of obsessive compulsive behavior [2]	Ki (hSERT) [nM]	clinical response of motor function and dementia (dementia)
OC1(c2ccc(Cl)c(Cl)c2)c2ccccc2C2=NCCN21 (stereo not drawn) [Cpd 1, 5-(3,4-dichlorophenyl)-2,5-dihydro-5H-imidazo(2,1-a)isoindol-5-ol]	363 ± 41	25 ± 4.8	101 ± 7.9									
Clc1ccc(C2c3ccccc3C3=NCCN32)cc1 (stereo not drawn) [Cpd 2, 5-(4-Chlorophenyl)-2,5-dihydro-5H-imidazo(2,1-a)is oindole]	56 ± 19	45 ± 11	14 ± 5									
Clc1ccc(C2c3ccccc3C3=NCCN32)cc1 (stereo not drawn) [Cpd 3, 5-(4-Chlorophenyl)-2,3-dihydro-5H-imidazo (2,1-a)is oindole]	89 ± 18	111 ± 7.3	312 ± 45									
OC1(c2ccc(Cl)cc2)c2ccccc2C2=NCCN21 (stereo not drawn) [mazindol, 5-(4-Chlorophenyl)-2,5-dihydro-5H-imidazo(2,1-a)is oindol-5-ol]				without the return of any symptoms of ADHD	improved attention span, loss of hyperactivity	complete relief of their fatigue and muscle ache symptoms	significant improvement in these symptoms	24 ± 2	able to completely stop drinking after 5 weeks	relief of their obsessive compulsive behavior	56 ± 9	improvement of their motor function, and their dementia

— patent US20180098970A1, “USE OF […] THE TREATMENT OF NEURO[…]” (Afecta Pharmaceuticals, Inc., priority 2008, published 2018)
